Results on 22 compounds are retold here after patent US9512142B2, “Tricyclic triazolic compounds” (LABORATORIOS DEL DR. ESTEVE S.A., priority 2013, dated 2016).

Series [1] in a line: Kinetic solubility. Format: physicochemical. Particulars: kinetic from dmso stock, buffered aqueous solution at pH=7.4, 10 μL of 10 mM DMSO solution in 1 mL, stirred 4 hours, supernatant by liquid chromatography, read-out: Kin. Solub. How it is done: To a buffered aqueous solution at pH=7.4 (1 mL), a 10 mM DMSO solution of the test compound (10 μL) was added and the mixture stirred for 4 hours. After centrifugation, the compound concentration in the supernatant was determined by liquid chromatography by fitting in a calibration curve of the compound.

The target of series [2] is T1, human sigma 1 receptor (Homo sapiens, UniProt Q99720).
T1 construct: expressed in transfected cells; host or cells: HEK-293
Briefly: Human sigma 1 receptor radioligand assay ([3H](+)-pentazocine, transfected HEK-293 membranes). Format: binding. How it is done: Human Sigma 1 Receptor Radioligand Assay
The assay was carried out with 7 μg of membrane suspension, 5 nM of [^3H](+)-pentazocine in either absence or presence of either buffer or 10 μM Haloperidol for total and non-specific binding, respectively. Binding buffer contained Tris-HCl 50 mM at pH 8. Plates were incubated at 37° C. for 120 minutes. After the incubation period, the reaction mix was then transferred to MultiScreen HTS, FC plates (Millipore), filtered and plates were washed 3 times with ice-cold 10 mM Tris-HCL (pH7.4). Filters were dried and counted at approximately 40% efficiency in a MicroBeta scintillation counter (Perkin-Elmer) using EcoScint liquid scintillation cocktail.

Where [3] appears, read: 5 nM [3H](+)-pentazocine, transfected HEK-293 membranes, 37° C., 120 minutes, read-out: Ki.
Where [4] appears, read: buffered aqueous solution, pH 7.4, aqueous buffer.

Where two headings read alike, the source gives them in different places.

T1 sequence (Q99720 whole entry): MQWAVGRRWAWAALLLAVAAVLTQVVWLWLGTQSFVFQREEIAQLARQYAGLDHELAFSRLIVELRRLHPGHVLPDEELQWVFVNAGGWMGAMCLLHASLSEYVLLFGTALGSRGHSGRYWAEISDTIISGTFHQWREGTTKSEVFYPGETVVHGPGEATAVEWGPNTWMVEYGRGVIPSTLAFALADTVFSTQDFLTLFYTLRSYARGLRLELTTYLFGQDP

Turning to `Cl.Fc1ccc(CN2C[C@@H]3[C@@H](C2)OCc2c(-c4ccccc4F)nnn23)cn1` [Example 11, (5aR,8aR)-3-(2-fluorophenyl)-7-((6-fluoropyridin-3-yl)methyl)-4,5a,6,7,8,8a-hexahydropyrrolo[3,4-b][1,2,3]triazolo[1,5-d][1,4]oxazine hydrochloride], the solubility at 4 h in series [1] (aqueous buffer) was greater than 10 µM. Also, the Ki (usually the equilibrium dissociation constant of an inhibitor or competing ligand from its target) in series [2] (setting [3]) amounted to 0.241 µM.

Turning to `Cl.Fc1ccccc1-c1nnn2c1CO[C@H]1CN(C[C@H]3CCOC3)C[C@@H]12` [Example 15, (5aS,8aS)-3-(2-fluorophenyl)-7-(((R)-tetrahydrofuran-3-yl)methyl)-4,5a,6,7,8,8a-hexahydropyrrolo[3,4-b][1,2,3]triazolo[1,5-d][1,4]oxazine hydrochloride], the solubility at 4 h in series [1] (setting [4]) is greater than 10 µM. In addition, the Ki in series [2] (setting [3]) stood at 0.0297 µM.

For `Cl.Fc1ccccc1-c1nnn2c1CO[C@@H]1CN(C[C@@H]3CCOC3)C[C@H]12` [Example 16, (5aR,8aR)-3-(2-fluorophenyl)-7-(((S)-tetrahydrofuran-3-yl)methyl)-4,5a,6,7,8,8a-hexahydropyrrolo[3,4-b][1,2,3]triazolo[1,5-d][1,4]oxazine hydrochloride], the solubility at 4 h in series [1] (setting [4]) is greater than 10 µM. Moreover, in series [2] (setting [3]), the inhibitory constant (Ki) came to 0.0976 µM.

Take `Cl.Fc1ccccc1-c1nnn2c1CO[C@H]1CN(C[C@@H]3CCOC3)C[C@@H]12` [Example 17, (5aS,8aS)-3-(2-fluorophenyl)-7-(((S)-tetrahydrofuran-3-yl)methyl)-4,5a,6,7,8,8a-hexahydropyrrolo[3,4-b][1,2,3]triazolo[1,5-d][1,4]oxazine hydrochloride]: the solubility at 4 h in series [1] (setting [4]) is greater than 10 µM. Moreover, the inhibition constant Ki in series [2] (setting [3]) was determined as 0.0492 µM.

`Cl.Fc1ccccc1-c1nnn2c1CO[C@@H]1CN(C[C@H]3CCOC3)C[C@H]12` [Example 18, (5aR,8aR)-3-(2-fluorophenyl)-7-(((R)-tetrahydrofuran-3-yl)methyl)-4,5a,6,7,8,8a-hexahydropyrrolo[3,4-b][1,2,3]triazolo[1,5-d][1,4]oxazine hydrochloride]: the solubility at 4 h in series [1] (setting [4]) was greater than 10 µM. Also, the Ki in series [2] (setting [3]) was 0.171 µM.

On to `CCOc1ccc(CN2C[C@@H]3[C@@H](C2)OCc2c(-c4ccccc4F)nnn23)cn1.Cl` [Example 19, (5aR,8aR)-7-((6-ethoxypyridin-3-yl)methyl)-3-(2-fluorophenyl)-4,5a,6,7,8,8a-hexahydropyrrolo[3,4-b][1,2,3]triazolo[1,5-d][1,4]oxazine hydrochloride], for which, in series [1] (setting [4]), the solubility at 4 h was greater than 10 µM. For the same compound, the Ki in series [2] (setting [3]) is 0.0833 µM.

On to `Cc1cc(CN2C[C@@H]3OCc4c(-c5ccc(F)cc5F)nnn4[C@H]3C2)c(C)o1.Cl` [Example 22, (5aS,8aS)-3-(2,4-difluorophenyl)-7-((2,5-dimethylfuran-3-yl)methyl)-4,5a,6,7,8,8a-hexahydropyrrolo[3,4-b][1,2,3]triazolo[1,5-d][1,4]oxazine hydrochloride], for which the solubility at 4 h in series [1] (setting [4]) was greater than 10 µM. In series [2] (setting [3]), the inhibition constant Ki is 0.119 µM.

In the case of `Cc1cc(CN2C[C@@H]3[C@@H](C2)OCc2c(-c4ccc(F)cc4F)nnn23)c(C)o1.Cl` [Example 23, (5aR,8aR)-3-(2,4-difluorophenyl)-7-((2,5-dimethylfuran-3-yl)methyl)-4,5a,6,7,8,8a-hexahydropyrrolo[3,4-b][1,2,3]triazolo[1,5-d][1,4]oxazine hydrochloride], the solubility at 4 h in series [1] (setting [4]) was greater than 10 µM. The Ki in series [2] (setting [3]) stood at 0.0419 µM.

`Cl.Fc1ccc(-c2nnn3c2CO[C@H]2CN(C4CCOCC4)C[C@@H]23)c(F)c1` [Example 27, (5aS,8aS)-3-(2,4-difluorophenyl)-7-(tetrahydro-2H-pyran-4-yl)-4,5a,6,7,8,8a-hexahydropyrrolo[3,4-b][1,2,3]triazolo[1,5-d][1,4]oxazine hydrochloride]: the solubility at 4 h in series [1] (setting [4]) is greater than 10 µM. Besides, the inhibitory constant (Ki) in series [2] (setting [3]) was found to be 0.0204 µM.

As to `Cl.c1ccc(-c2nnn3c2CO[C@H]2CN(C4CCOCC4)C[C@@H]23)nc1` [Example 31, (5aS,8aS)-3-(pyridin-2-yl)-7-(tetrahydro-2H-pyran-4-yl)-4,5a,6,7,8,8a-hexahydropyrrolo[3,4-b][1,2,3]triazolo[1,5-d][1,4]oxazine hydrochloride], the solubility at 4 h in series [1] (aqueous buffer) was greater than 10 µM. Moreover, affinity in series [2] was put at a Ki of 0.241 µM.

As for `Cl.c1ccc(CN2C[C@@H]3[C@@H](C2)OCc2c(-c4ccccn4)nnn23)cc1` [Example 32, (5aR,8aR)-7-benzyl-3-(pyridin-2-yl)-4,5a,6,7,8,8a-hexahydropyrrolo[3,4-b][1,2,3]triazolo[1,5-d][1,4]oxazine hydrochloride], the solubility at 4 h in series [1] (setting [4]) was greater than 10 µM. Further, the Ki in series [2] (setting [3]) is 0.037 µM.

As to `Cl.c1ccc(CN2C[C@@H]3OCc4c(-c5ccccn5)nnn4[C@H]3C2)cc1` [Example 33, (5aS,8aS)-7-benzyl-3-(pyridin-2-yl)-4,5a,6,7,8,8a-hexahydropyrrolo[3,4-b][1,2,3]triazolo[1,5-d][1,4]oxazine hydrochloride], the solubility at 4 h in series [1] (setting [4]) was greater than 10 µM. Also, the inhibition constant (Ki) in series [2] (setting [3]) was 0.225 µM.

In the case of `Cl.Fc1ccc(-c2nnn3c2CO[C@@H]2CN(Cc4ccc(F)nc4)C[C@H]23)c(Cl)c1` [Example 39, (5aR,8aR)-3-(2-chloro-4-fluorophenyl)-7-((6-fluoropyridin-3-yl)methyl)-4,5a,6,7,8,8a-hexahydropyrrolo[3,4-b][1,2,3]triazolo[1,5-d][1,4]oxazine hydrochloride], the solubility at 4 h in series [1] (setting [4]) is greater than 10 µM. Also, in series [2] (setting [3]), the Ki stood at 0.166 µM.

With `Cl.Fc1ccc(-c2nnn3c2CO[C@@H]2CN(CC4CCOCC4)C[C@H]23)c(Cl)c1` [Example 42, (5aR,8aR)-3-(2-chloro-4-fluorophenyl)-7-((tetrahydro-2H-pyran-4-yl)methyl)-4,5a,6,7,8,8a-hexahydropyrrolo[3,4-b][1,2,3]triazolo[1,5-d][1,4]oxazine hydrochloride], the solubility at 4 h in series [1] (setting [4]) was greater than 10 µM. In series [2] (setting [3]), the Ki was found to be 0.0333 µM.

With `Cl.Fc1ccc(-c2nnn3c2CO[C@H]2CN(CC4CCOCC4)C[C@@H]23)c(Cl)c1` [Example 43, (5aS,8aS)-3-(2-chloro-4-fluorophenyl)-7-((tetrahydro-2H-pyran-4-yl)methyl)-4,5a,6,7,8,8a-hexahydropyrrolo[3,4-b][1,2,3]triazolo[1,5-d][1,4]oxazine hydrochloride], in series [1] (setting [4]), the solubility at 4 h was greater than 10 µM. Also, the inhibitory constant (Ki) in series [2] (setting [3]) amounted to 0.0205 µM.

For the compound `Cl.Clc1ccc(-c2nnn3c2CO[C@H]2CN(C4CCOCC4)C[C@@H]23)c(Cl)c1` [Example 46, (5aS,8aS)-3-(2,4-dichlorophenyl)-7-(tetrahydro-2H-pyran-4-yl)-4,5a,6,7,8,8a-hexahydropyrrolo[3,4-b][1,2,3]triazolo[1,5-d][1,4]oxazine hydrochloride], the solubility at 4 h in series [1] (setting [4]) is greater than 10 µM. Besides, the Ki in series [2] (setting [3]) stood at 0.0151 µM.

Turning to `Cl.Fc1ccc(-c2nnn3c2CO[C@@H]2CN(CCC4CCOCC4)C[C@H]23)c(Cl)c1` [Example 47, (5aR,8aR)-3-(2-chloro-4-fluorophenyl)-7-(2-(tetrahydro-2H-pyran-4-yl)ethyl)-4,5a,6,7,8,8a-hexahydropyrrolo[3,4-b][1,2,3]triazolo[1,5-d][1,4]oxazine hydrochloride], the solubility at 4 h in series [1] (setting [4]) was greater than 10 µM. Further, the Ki in series [2] (setting [3]) worked out at 0.0268 µM.

For the compound `Cl.Fc1ccc(-c2nnn3c2CO[C@H]2CN(CCC4CCOCC4)C[C@@H]23)c(Cl)c1` [Example 48, (5aS,8aS)-3-(2-chloro-4-fluorophenyl)-7-(2-(tetrahydro-2H-pyran-4-yl)ethyl)-4,5a,6,7,8,8a-hexahydropyrrolo[3,4-b][1,2,3]triazolo[1,5-d][1,4]oxazine hydrochloride], in series [1] (setting [4]), the solubility at 4 h is greater than 10 µM. For the same compound, the Ki in series [2] (setting [3]) was found to be 0.0117 µM.

For `COc1ccc(CN2C[C@@H]3[C@@H](C2)OCc2c(-c4ccc(F)cc4Cl)nnn23)cn1.Cl` [Example 49, (5aR,8aR)-3-(2-chloro-4-fluorophenyl)-7-((6-methoxypyridin-3-yl)methyl)-4,5a,6,7,8,8a-hexahydropyrrolo[3,4-b][1,2,3]triazolo[1,5-d][1,4]oxazine hydrochloride], the solubility at 4 h in series [1] (setting [4]) is greater than 10 µM. For the same compound, in series [2] (setting [3]), the Ki worked out at 0.112 µM.

For `COc1ccc(CN2C[C@@H]3OCc4c(-c5ccc(F)cc5Cl)nnn4[C@H]3C2)cn1.Cl` [Example 50, (5aS,8aS)-3-(2-chloro-4-fluorophenyl)-7-((6-methoxypyridin-3-yl)methyl)-4,5a,6,7,8,8a-hexahydropyrrolo[3,4-b][1,2,3]triazolo[1,5-d][1,4]oxazine hydrochloride], the solubility at 4 h in series [1] (setting [4]) was greater than 10 µM. For the same compound, the inhibition constant Ki in series [2] (setting [3]) came to 0.0999 µM.

For the compound `COc1ccc(CN2C[C@@H]3[C@@H](C2)OCc2c(-c4ccc(F)cc4F)nnn23)cn1.Cl` [Example 51, (5aR,8aR)-3-(2,4-difluorophenyl)-7-((6-methoxypyridin-3-yl)methyl)-4,5a,6,7,8,8a-hexahydropyrrolo[3,4-b][1,2,3]triazolo[1,5-d][1,4]oxazine hydrochloride], in series [1] (setting [4]), the solubility at 4 h is greater than 10 µM. Besides, the Ki in series [2] (setting [3]) amounted to 0.234 µM.

On to `COc1ccc(CN2C[C@@H]3OCc4c(-c5ccc(F)cc5F)nnn4[C@H]3C2)cn1.Cl` [Example 52, (5aS,8aS)-3-(2,4-difluorophenyl)-7-((6-methoxypyridin-3-yl)methyl)-4,5a,6,7,8,8a-hexahydropyrrolo[3,4-b][1,2,3]triazolo[1,5-d][1,4]oxazine hydrochloride], for which the solubility at 4 h in series [1] (setting [4]) was greater than 10 µM. The Ki in series [2] (setting [3]) came to 0.272 µM.
